# Data from patent US20240150368A1, “ULK INHIBITORS AND METHODS OF USE THEREOF” (Deciphera Pharmaceuticals, LLC, priority 2022, published 2024).
# How the values were obtained:
# [1] = tested on: ULK kinase substrate ATG13 (pS318-ATG13) in A549 (KRAS mutant) cells; assay: pATG13 levels of mutant KRas A549 cells after treatment with ULK inhibitors in combination with trametinib (ELISA); assay type: cell-based, human
# Experimental: Cellular Inhibition of ULK Kinase Substrate ATG13 Protein pATG13 Levels of Mutant KRas A549 Cells after Treatment with ULK Inhibitors in Combination with Trametinib
# (§1) A549 (KRAS mutant) human lung cancer cells (6,000 cells/well) were added to a 384-well tissue-culture treated plate in 50 μL of pre-warmed DMEM medium supplemented with 10% characterized fetal bovine serum (Invitrogen, Carlsbad, CA), 100 units/mL penicillin G, and 100 μg/mL streptomycin and allowed to grow overnight at 37° C., 5% CO2, and 95% humidity. The following day, 10 μL of media containing trametinib or DMSO as a control was added to wells. The final concentration of trametinib in wells was 250 nM. A dose response of a test compound (0.6 μL per well) was added. DMSO (0.6 μL) was added to control wells. The plate was briefly shaken to mix wells and then incubated at 37° C. overnight. The next day, the media was aspirated and cells were washed with Dulbecco's Phosphate Buffered Saline (Gibco). Cells were lysed using MPER lysis buffer (Pierce, Rockford, IL) containing Halt Phosphatase and Protease Inhibitors (Pierce, Rockford, IL) and Phosphatase inhibitor cocktail 2 (Sigma, St. Louis, MO) at 4° C. for 10 min with shaking.
# (§2) Cellular levels of phospho-Serine 318 ATG13 (pATG13) were measured via an ELISA method. Total ATG13 Antibody (Cell Signaling Cat #13273) was used to coat the wells. The plate was incubated at 4° C. overnight and washed with ELISA wash buffer (Biolegend Cat #421601). The wells were then blocked with assay diluent (Biolegend Cat #421203) for 1 h at rt. Plate wells were washed with ELISA wash buffer. Cell lysate was added to wells and incubated at rt for 2 h. Plate wells were washed with ELISA wash buffer. Biotinylated pS318-ATG13 antibody (Rockland Immunochemicals Cat #600-401-C49) was diluted in assay diluent and added to each well and incubated at rt for 1 h. Plate wells were washed with ELISA wash buffer. Streptavidin linked to horseradish peroxidase (Thermo Fisher Cat #21140) was diluted in assay diluent and added to each well and incubated at rt for 1 h. Plate wells were washed with ELISA wash buffer. High sensitivity TMB substrate (Biolegend Cat #421101) was added to each well and incubated at rt for 20 min. The reaction was stopped with 2N Sulfuric Acid. The plate was analyzed at on a plate reader measuring absorbance at 450 nm and 540 nm (background). Signal was calculated by first subtracting the background absorbance at 540 nm from the absorbance at 450 nm for each well. Next, the background corrected absorbance at 450 nm from blank wells was subtracted from test wells. Data was compared to control wells to determine % ATG13 phosphorylation. GraphPad Prism was used to calculate IC50 values.
# [2] = tested on: ULK kinase substrate ATG13 (pS318-ATG13) in MiaPaCa-2 cells; assay: pATG13 levels of mutant KRas MiaPaCa-2 cells after treatment with ULK inhibitors in combination with trametinib (ELISA); assay type: cell-based, human
# Experimental: pATG13 Levels of Mutant KRas MiaPaCa-2 Cells after Treatment with ULK Inhibitors in Combination with Trametinib
# as §1, with “MiaPaCa-2” for “A549 (KRAS mutant)”, “pancreatic” for “lung”, “(10000” for “(6,000”, “G,” for “G, and”, “streptomycin, and 2.5% Horse Serum” for “streptomycin”, “minutes” for “min”
# as §2, with “2.0N sulfuric acid.” for “2N Sulfuric Acid.”
IC50 [1] [nM],IC50 [2] [nM],Compound
100 to 300,100 to 300,"CC/C(Nc1cnn(C2CCN(C(C)C)CC2)c1)=C1/C(=O)Nc2ccc(C(=O)NCC3CCC(C4CC4)O3)cc21 (centres unmarked) [Example 3, (Z)—N-((5-cyclopropyltetrahydrofuran-2-yl)methyl)-3-(1-((1-(1-isopropylpiperidin-4-yl)-1H-pyrazol-4-yl)amino)propylidene)-2-oxoindoline-5-carboxamide]"
100 to 300,≤ 100,"CC/C(Nc1cnn(C(C)C)c1)=C1/C(=O)Nc2ccc(C(=O)NCC(F)(F)F)cc21 [Example 4, (Z)-3-(1-((1-isopropyl-1H-pyrazol-4-yl)amino)propylidene)-2-oxo-N-(2,2,2-trifluoroethyl)indoline-5-carboxamide]"
> 600,100 to 300,"CC/C(Nc1cnn(C(C)C)c1)=C1/C(=O)Nc2ccc(C(=O)NCC3(C)COC3)cc21 [Example 5, (Z)-3-(1-((1-isopropyl-1H-pyrazol-4-yl)amino)propylidene)-N-((3-methyloxetan-3-yl)methyl)-2-oxoindoline-5-carboxamide]"
≤ 100,≤ 100,CC/C(Nc1cnn(C2CCN(C(C)C)CC2)c1)=C1/C(=O)Nc2ccc(C(=O)N(C)CC(F)(F)F)cc21 [Example 7]
≤ 100,≤ 100,CC/C(Nc1cnn(C2CCN(C(C)C)CC2)c1)=C1/C(=O)Nc2ccc(C(=O)NCC(F)(F)F)cc21 [Example 8]
300 to 600,100 to 300,CC/C(Nc1cnn(C2CCN(C(C)C)CC2)c1)=C1/C(=O)Nc2ccc(C(=O)N(C)CCOC)cc21 [Example 9]
≤ 100,≤ 100,CC/C(Nc1cnn(C2CCN(C(C)C)CC2)c1)=C1/C(=O)Nc2ccc(C(=O)NCC(C)C)cc21 [Example 16]
> 600,≤ 100,CC/C(Nc1cnn(C2CCN(C(C)C)CC2)c1)=C1/C(=O)Nc2ccc(C(=O)NCC3CCO3)cc21 (centres unmarked) [Example 21]
> 600,≤ 100,CC/C(Nc1cnn(C2CCN(C(C)C)CC2)c1)=C1/C(=O)Nc2ccc(C(=O)NCCC#N)cc21 [Example 26]
100 to 300,≤ 100,CC/C(Nc1cnn(C2CCN(C(C)C)CC2)c1)=C1/C(=O)Nc2ccc(C(=O)NCC(C)(C)OC)cc21 [Example 27]
> 600,≤ 100,CC/C(Nc1cnn(C2CCN(C(C)C)CC2)c1)=C1/C(=O)Nc2ccc(C(=O)NCC(C)(C)O)cc21 [Example 28]
300 to 600,≤ 100,CC/C(Nc1cnn(C2CCN(C(C)C)CC2)c1)=C1/C(=O)Nc2ccc(C(=O)NC3CC(F)(F)C3)cc21 [Example 29]
100 to 300,≤ 100,CC/C(Nc1cnn(C2CCN(C(C)C)CC2)c1)=C1/C(=O)Nc2ccc(C(=O)NCC3CC(F)(F)C3)cc21 [Example 30]
≤ 100,≤ 100,CC/C(Nc1cnn(C2CCN(C(C)C)CC2)c1)=C1/C(=O)Nc2ccc(C(=O)NCCC(F)(F)F)cc21 [Example 31]
≤ 100,≤ 100,CC/C(Nc1cnn(C2CCN(C3CCOCC3)CC2)c1)=C1/C(=O)Nc2ccc(C(=O)NCC(C)C)cc21 [Example 37]
≤ 100,≤ 100,CC/C(Nc1cnn(C2CCN(C(C)C)CC2)c1)=C1/C(=O)Nc2ccc(C(=O)NCC3CC3)cc21 [Example 42]

IC50 [1] [nM],IC50 [2] [nM],Compound
≤ 100,≤ 100,CC/C(Nc1cnn(C2CCN(C(C)C)CC2)c1)=C1/C(=O)Nc2ccc(C(=O)NCC3CCCC3)cc21 [Example 44]
≤ 100,≤ 100,CC/C(Nc1ccc(N2CCN(C(C)C)CC2)cc1)=C1/C(=O)Nc2ccc(C(=O)NC[C@H]3CCCO3)cc21 [Example 47]
> 600,≤ 100,CC/C(Nc1cnn(C2CCN(C)CC2)c1)=C1/C(=O)Nc2ccc(C(=O)NC[C@H]3CCCO3)cc21 [Example 51]
> 600,≤ 100,CC/C(Nc1cnn(C2CCNCC2)c1)=C1/C(=O)Nc2ccc(C(=O)NC[C@H]3CCCO3)cc21 [Example 52]
300 to 600,≤ 100,CC/C(Nc1cnn(C2CN(C)C2)c1)=C1/C(=O)Nc2ccc(C(=O)NC[C@H]3CCCO3)cc21 [Example 54]
100 to 300,≤ 100,CC/C(Nc1cnn(C)c1)=C1/C(=O)Nc2ccc(C(=O)NC[C@H]3CCCO3)cc21 [Example 55]
100 to 300,≤ 100,CC/C(Nc1cnn(C2CCN(C(C)C)CC2)c1)=C1/C(=O)Nc2ccc(C(=O)NC[C@@H](C)OC)cc21 [Example 58]
≤ 100,≤ 100,CC/C(Nc1ccc(N2C[C@H]3CN(C)C[C@H]3C2)cc1)=C1/C(=O)Nc2ccc(C(=O)NCC(F)(F)F)cc21 [Example 61]
100 to 300,≤ 100,CC/C(Nc1ccc(N2CC3(CN(C)C3)C2)cc1)=C1/C(=O)Nc2ccc(C(=O)NCC(F)(F)F)cc21 [Example 62]
≤ 100,≤ 100,CC/C(Nc1ccc(N2CCN(C(C)C)CC2)cn1)=C1/C(=O)Nc2ccc(C(=O)NC[C@H]3CCCO3)cc21 [Example 93]
100 to 300,≤ 100,CC/C(Nc1cnc(N2CCN(C(C)C)CC2)cn1)=C1/C(=O)Nc2ccc(C(=O)NCC(F)(F)F)cc21 [Example 94]
≤ 100,≤ 100,CC/C(Nc1cnn(C(C)C)c1)=C1/C(=O)Nc2ccc(C(=O)NC[C@H]3CCCO3)cc21 [Example 95]
300 to 600,≤ 100,CC/C(Nc1cnn(C2CCN(C(C)C)CC2)c1)=C1/C(=O)Nc2ccc(C(=O)NCCOC)cc21 [Example 98]
300 to 600,100 to 300,CC/C(Nc1ccc(N2CCN(C(C)C)CC2)cc1)=C1/C(=O)Nc2cc(F)c(C(=O)NCC(F)(F)F)cc21 [Example 100]
≤ 100,≤ 100,C/C(Nc1cnn(C(C)C)c1)=C1/C(=O)Nc2ccc(C(=O)NCC(F)(F)F)cc21 [Example 101]
100 to 300,≤ 100,CC/C(Nc1cnn(CCOC)c1)=C1/C(=O)Nc2ccc(C(=O)NCC(F)(F)F)cc21 [Example 102]

Compound,IC50 [1] [nM],IC50 [2] [nM]
CC/C(Nc1cnn(C2CC3CCC(C2)N3C)c1)=C1/C(=O)Nc2ccc(C(=O)NC[C@H]3CCCO3)cc21 (some centres unmarked) [Example 53],> 600,≤ 100
CC/C(Nc1ccc(N2CC3CC(C2)N3C)cc1)=C1/C(=O)Nc2ccc(C(=O)NCC(F)(F)F)cc21 [Example 60],≤ 100,≤ 100
